Laboratory results: US20250375491A1, “MONASCUS PILOSUS STRAIN, COMPOSITION FOR LOSING WEIGHT AND IMPROVING GUT MICROBIOTA COMPOSITION AND USE OF SAID MONASCUS PILOSUS” (SUNWAY BIOTECH CO., LTD., priority 2024, published 2025)
Marks after values point to notes of the source that are not given here.

Columns and labels:
Type in all cases: in vivo, Sprague-Dawley (SD) rats
[1] = system: obesity rats induced by high-fat feed; experiment: Liver lipid extraction and determination (TC, TG); conditions: high-fat diet rats; Monascinol 0.31 mg/kg BW daily by tube feeding (human 3 mg/day), 8 weeks
Procedure: (§1) Forty male rats of 8-week-old Sprague-Dawley (SD) strain were purchased from BioLASCO (Taipei, Taiwan) for the experiment. The growing environment was one with constant indoor temperature (25±1° C.), relative humidity of 60%, and 12 hours of cyclic light (light time from 8:00 to 20:00). The rats were acclimatized for four days before the formal experiment, then reared in 5 groups of 8 rats each for 8 weeks and were fed in an ad libitum feeding manner, and their body weight, food intake and water intake were measured at regular intervals during the experimental period.
(§2) The experimental rats were divided into groups, and the obesity rats were induced by high-fat feed as follows (Please refer to Table 1). • i. NOR Group: Normal animal group. • ii. HF Group: High-fat control group including obesity rats induced by high-fat feed. • iii. […]
(§3) 0.1 g of liver tissue or fecal powder was weighed and 1 mL of chloroform:methanol (2:1, v/v volume ratio) was added, and homogenized with a tissue homogenizer and centrifuged to obtain the supernatant. […] The TC concentration was analyzed using a commercially available biochemical reagent (Model No. BXC 0261, Fortress), and the TG concentration was analyzed using a commercially available biochemical reagent (Model No. BXC 0271, Fortress), as per the kit instruction manual.

[2] = system: obesity rats induced by high-fat feed; experiment: Body weight change of obesity rats induced by high-fat feed; conditions: high-fat diet rats, Monascinol 0.31 mg/kg BW daily by tube feeding (human 3 mg/day), 8 weeks
Procedure: • (1) Msol Group: This group used Monascinol with an adult daily dosage of 3 mg/day. • (2) RL and RH Groups: These groups used the red yeast rice obtained by fermenting the Monascus pilosus fermented rice of the present invention and the red yeast rice contained 3 mg/g of Monascinol, wherein the adult daily dosage of the red yeast rice for the RL and RH groups were 0.5 g/day and 2 g/day respectively. 2. Experiment on Evaluation of Adjustment of Body Fat Composition
as §1
The feeding dosage was calculated according to the method of “Estimating the maximum safe starting dose in initial clinical trials for therapeutics in adult healthy volunteers” published by the U.S. Food and Drug Administration in 2005. Provided that an adult of 60 kg was used as the base, the principle of dosage conversion is 6.2 times of the recommended daily intake of mg/kg bw/day for human as the recommended daily intake of mg/kg bw/day for rat, and the rat group is configured and fed with the dosage as shown in Table 1. The formulae are as follows: Dose intake per kilogram of body weight in rats=Recommended intake in humans÷Body weight 60 kg×6.2, and thus the daily dose intake per kilogram of body weight in rats can be calculated.
The experimental rats were divided into groups, and the obesity rats were induced by high-fat feed as follows (Please refer to Table 1). • i. NOR Group: Normal animal group. • ii. […]
The body weight of rats was measured weekly and the changes in body weight of each group were compared at the end of the experiment.

[3] = system: obesity rats induced by high-fat feed; experiment: Body fat mass and body fat rate (perirenal and epididymal fatty tissues); conditions: high-fat diet rats, Monascinol 0.31 mg/kg BW daily by tube feeding (human 3 mg/day), 8 weeks
Procedure: as §1
(§4) The experimental rats were divided into groups, and the obesity rats were induced by high-fat feed as follows (Please refer to Table 1). • i. NOR Group: Normal animal group. • ii. HF Group: High-fat control group including obesity rats induced by high-fat feed. • iii. RL Group: Obesity rats induced by high-fat feed and tube-fed daily with red yeast rice powder, equivalent to 0.5 g of red yeast rice containing 1.5 mg of Monascinol per day consumed by an adult rat of 60 kg. • iv. […]
At the time of sacrifice, fatty tissues surrounding the kidneys and the epididymis (perirenal and epididymal fatty tissues) of the experimental animals were removed, and the their weights were measured and recorded. The body fat rate was calculated as follows: […]

[4] = system: gut microbiota of high-fat diet rats; experiment: Gut microbiota fecal analysis (full-length 16S sequencing)
Procedure: About 0.3 g of fresh feces was collected into 1.5 mL of eppendorf before fasting for sacrifice, sealed with parafilm, stored at −80° C. for analysis, and sent to BioTools (New Taipei, Taiwan) for analysis.
Total genomic DNA (QIAamp PowerFecal DNA, Qiagen) was extracted from the samples. The DNA concentration was determined by Qubit 4.0 fluorometer (Thermo Scientific) and adjusted to 1 ng/μL. The full-length 16S gene (V1-V9 region) was amplified by 16S gene-specific primers with barcodes (Forward primer 1): 5′ Phos/GCATC-16-base barcode-Sequence ID Number 11, Reverse primer 1: 5′Phos/GCATC-16-base barcode-Sequence ID Number 12). PCR reactions were performed using KAPA HiFi HotStart ReadyMix (Roche): at 95° C. for 3 min. and 20-27 cycles (Sample Dependency): at 95° C. for 30 sec., at 57° C. for 30 sec., at 72° C. for 60 sec; at 72° C. for 5 min., and finally stored at 4° C. for future use. PCR products were monitored on 1% agarose gels. Samples of approximately 1500 bp bright bands were selected and purified by using AMPure PB Beads for SMRTbell library preparation.
SMRTbell libraries were prepared based on full-length 16S gene amplifications with barcoded primers used in the Multiplex SMRTbell Library Preparation and Sequencing Program (Pacbio). Sequencing was performed in circular consensus sequencing (CCS) mode on a PacBio Sequel Ile instrument, generating HiFi read with a Phred Scale=30. The DNA to be tested will be sequenced iteratively. By comparing the results of the reverse sequencing, sequencing errors will be corrected, ultimately achieving a high accuracy of >99.9% (QV30).
Information Analysis (Sequential data processing/denoising and species annotation) The sample data from the downstream data were sorted out according to the Barcode sequence and PCR amplification primer sequences. After the removal of the barcodes and primer sequences, the data were imported into QIIME2 (v2019.7.0; https://qiime2.org/) and all the sequences of the samples were saved into one corresponding object Artifacts. QIIME2 cutadapt was used to remove the amplicon variant primers (forward primer 2: Sequence ID Number 13; reverse primer 2: Sequence ID Number 14), and the sequence with the primers removed will be used as QIIME2 DADA2. Input Reads.
The denoising analysis began with the filtering of sequences, setting each sequence to be cropped to a specified length (forward reads: 280 bp; reverse reads: 220 bp) and setting the MaxEE (forward reads: 2; reverse reads: 2) parameter as the maximum number of expected error bases allowed for the sequence. This was followed by denoising, the core algorithm of DADA2 utilizing the information of sequence abundance, quality score, and relationships between sequences to correct the […] of sequencing errors and to infer the real sequences. Splicing was performed after denoising each end of the sequence (minimum overlap length 20 bp; overlap region was not allowed to be mismatched). Finally, the spliced sequences are subjected to chimera removal by comparing the sequences with higher abundance in the sample. If a sequence with low abundance is similar to several sequences, it can be recognized as a chimera and removed from the sample. Sequences after denoising analysis were used as representative sequences of Amplicon Sequence Variants (ASVs) and can be obtained from the ASV table for subsequent species annotation. The QIIME2 feature-classifier (v2019.7.0; https://qiime2.org/) was used to select machine learning-based classification methods and to train naïve bayes classifiers for different databases and specific variability regions. The taxonomic annotation of ASVs represented by this classifier yields taxonomic information and the composition of the microbial phyla of each sample at each classification level including kingdom, phylum, class, order, family, genus, and species.
Welch's t-test was analyzed by STAMP (v2.1.3), and the intergroup species differences were plotted as bar charts. […]

[5] = system: obesity rats induced by high-fat feed; experiment: Liver weight and liver/body weight of high-fat diet rats; conditions: Monascinol 0.31 mg/kg BW daily by tube feeding (human 3 mg/day), 8 weeks
Procedure: as §1
as §4, with “iv. RH Group: Obesity rats induced by high-fat feed and tube-fed red yeast rice powder daily, equivalent to 2 g of red yeast rice containing 6 mg of Monascinol per day consumed by an adult of 60 kg. • v.” for “iv.”

[6] = system: obesity rats induced by high-fat feed; experiment: Serum biochemical analysis (TC, TG); conditions: high-fat diet rats, Monascinol 0.31 mg/kg BW daily by tube feeding (human 3 mg/day), 8 weeks
Procedure: as §1, §4
The test was performed using a biochemical autoanalyzer (Model No.: Beckman-700, purchased from Fullerton, California, USA). The items measured were Total Cholesterol (TC), and Triglyceride (TG).

[7] = system: obesity rats induced by high-fat feed; experiment: Fecal lipid extraction and determination (TC, TG); conditions: high-fat diet rats; Monascinol 0.31 mg/kg BW daily by tube feeding (human 3 mg/day), 8 weeks
Procedure: as §1, §2, §3

[8] = FIGS. 9A-9D, high-fat diet rats
[9] = order level, FIG. 7C, high-fat diet rats
[10] = phylum level, FIG. 7A, high-fat diet rats vs HF group

Which results are given for Monascinol [Msol]?
Liver TC [1]: 5.05 ± 0.54^a mg/g; Liver TG [1]: 14.40 ± 1.57^a mg/g; Weight before Sacrifice ([2]; after fasting): 488.5 ± 31.7^a g; Weight 8 week [2]: 512.1 ± 31.1^a g; Weight gain [2]: 220.8 ± 38.8^a g; Fat/body weight ([3]; body fat percentage): 3.35 ± 0.55^b %; Fat weight ([3]; perirenal and epididymal fat): 17.95 3.55^b g; F/B ratio (abundance ratio of Firmicutes to Bacteroidetes) ([4]; FIG. 7A, high-fat diet rats vs HF group): decrease; effect on B. thetaiotaomicron in the intestines [4, 8]: most significant; intestinal abundance of Dubosiella newyorkensis [4, 8]: increase; bacterial abundance of Bifidobacteriales in the intestine [4, 9]: increased; intestinal abundance of Verrucomicrobiales [4, 9]: increased; abundance of Eubacteriales ([4]; order level, FIG. 8, HF group 50.14%, high-fat diet rats, Monascinol (MSol, 3 mg/day), 8 weeks): 43.21%; abundance of Bacteroidetes [4, 10]: increase; abundance of Firmicutes [4, 10]: decrease; abundance of A. muciniphila ([4]; species level, FIG. 7F, high-fat diet-induced obesity rats): increased; Liver Weight/Body Weight [5]: 3.28 ± 0.37^b %; Liver weight [5]: 16.84 2.31^b g; TC [6]: 65.0 ± 10.4^b mg/dL; TG [6]: 61.7 ± 10.7^a mg/dL; Feces TC [7]: 46.22 ± 4.72^c mg/g; Feces TG [7]: 61.27 4.80^cd mg/g
